This is an account of results in the supplement of paper PMC10307832.

Holding throughout (assay): relative viability (nuclei count vs DMSO), 5 days (fraction); higher = more cells survive
Compound in experiment [1]: CCOC(=O)CCNc1cc(N2CCc3ccccc3CC2)nc(-c2ccccn2)n1 [GSK-J4] + Cc1cc(Nc2cc(N3CCN(C)CC3)nc(Sc3ccc(NC(=O)C4CC4)cc3)n2)n[nH]1 [Tozasertib] (partner 0.1 µM)
The gist of the method: (§1)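 For relative viability, nuclei counts in treated wells were divided by those in vehicle wells. Lung cancer cell lines had been pin-tool dosed in 1536-well plates the day after seeding and cultured for 5 days, then fixed and stained in one step (final 0.05% Triton X-100, 1% formaldehyde, 1 ug/ml Hoechst) and imaged at 4×. Doses were one drug alone or a fixed anchor-drug dose plus five library-drug doses (not always all listed) in √10 steps, and values are duplicate-plate medians.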

Compound in experiment [2]: CN1CCC(CC1)OC2=CC(=C(C=C2)NC3=NC=C4C(=N3)N(C(=O)N4C)C5CCCC5)OC [AZ3146] + Cc1nc(Nc2ncc(C(=O)Nc3c(C)cccc3Cl)s2)cc(N2CCN(CCO)CC2)n1 [Dasatinib] (partner 0.075 µM)
The gist of the method:
as §1

Compound in experiment [3]: CN1CCC(CC1)OC2=CC(=C(C=C2)NC3=NC=C4C(=N3)N(C(=O)N4C)C5CCCC5)OC [AZ3146] + O=C(c1cc(Cc2n[nH]c(=O)c3ccccc23)ccc1F)N1CCN(C(=O)C2CC2)CC1 [Olaparib] (partner 8 µM)
An outline of the steps:
as §1

Compound in experiment [4]: CN1CCC(CC1)OC2=CC(=C(C=C2)NC3=NC=C4C(=N3)N(C(=O)N4C)C5CCCC5)OC [AZ3146] + CC(C)C[C@H](NC(=O)[C@H](Cc1ccccc1)NC(=O)c1cnccn1)B(O)O [Bortezomib] (partner 0.002 µM)
The gist of the method:
as §1

With UMC-11, the relative viability was 0.189 in experiment [1] (first compound 0.5 µM); 0.176 in experiment [1] (first compound 15.81 µM); 0.17 in experiment [1] (first compound 50 µM); 0.426 in experiment [2] (first compound 0.08 µM); 0.562 in experiment [2] (first compound 0.253 µM); 0.463 in experiment [2] (first compound 0.8 µM). The relative viability in experiment [2] (first compound 2.53 µM) was 0.452; in experiment [2] (first compound 8 µM), 0.257; in experiment [3] (first compound 0.08 µM), 0.396; in experiment [3] (first compound 0.253 µM), 0.405; in experiment [3] (first compound 0.8 µM), 0.36; in experiment [3] (first compound 2.53 µM), 0.326. The relative viability came out at 0.279 in experiment [3] (first compound 8 µM); 0.814 in experiment [4] (first compound 0.08 µM); 0.661 in experiment [4] (first compound 0.253 µM); 0.598 in experiment [4] (first compound 0.8 µM); 0.675 in experiment [4] (first compound 2.53 µM); 0.635 in experiment [4] (first compound 8 µM).
